Assay results published in ChEMBL document CHEMBL5352438, “Discovery of Pyrrolo[2,3-d]pyrimidine derivatives as potent and selective colony stimulating factor 1 receptor kinase inhibitors” (Eur J Med Chem, 2022).

Legend:
in vivo [1] = details: Sprague-Dawley, rat, po, 10 mg/kg
in vivo [2] = details: Sprague-Dawley, rat, iv, 1 mg/kg
in vivo [3] = details: Sprague-Dawley, rat, po, 10 mg/kg; remark: listed apart in the source
in vivo [4] = details: Sprague-Dawley, rat, iv, 1 mg/kg; remark: listed apart in the source
in vivo [5] = details: Sprague-Dawley, rat, iv, 1 mg/kg; remark: listed apart in the source
in vivo [6] = details: Sprague-Dawley, rat, iv, 1 mg/kg; remark: listed apart in the source
in vivo [7] = details: Sprague-Dawley, rat, po, 10 mg/kg; remark: listed apart in the source
in vivo [8] = details: Sprague-Dawley, rat, po, 10 mg/kg; remark: listed apart in the source

SMILES: Cn1ccc2c(Oc3ccc(NC(=O)Cc4ccc(C(F)(F)F)c(F)c4)cc3)ncnc21
- AUC(0-inf) at 12 h (in vivo [1]): 14600 ng·h/mL
- clearance at 12 h (in vivo [2]): 13.3 mL/min/kg
- bioavailability at 12 h (in vivo [3]): 111%
- Cmax at 12 h (in vivo [4]): 1430 ng/mL
- Vd at 12 h (in vivo [5]): 1.55 L/kg
- AUC(0-inf) at 12 h (in vivo [6]): 1310 ng·h/mL
- Cmax at 12 h (in vivo [7]): 1190 ng/mL
- CL/F at 12 h (in vivo [8]): 11.6 mL/min/kg
